Measurements taken from patent US20250034216A1, “STEREOSELECTIVE COVALENT LIGANDS FOR ONCOGENIC AND IMMUNOLOGICAL PROTEINS” (The Scripps Research Institute, priority 2021, published 2025).

Assays:
PHF5A_C26 = molecular target: T1, PHF5A_C26 (Homo sapiens, UniProt O75533+Q7RTV0); test: IA-DTB cysteine reactivity profiling; type: binding
T1 construct: endogenous in cells
Experimental: Sample preparation: Cells (adherent: 15 cm dishes, suspension: 2 million cells/mL) were treated with electrophilic probes in situ for indicated times and concentrations, washed with ice-cold PBS, and flash frozen in liquid nitrogen. Cell pellets were lysed by sonication (8 pulses, 40% power) in 500 μL ice-cold PBS supplemented with cOmplete protease inhibitors (1 tablet/10 mL of PBS). Whole cell lysates protein content was measured using a standard DC protein assay (Bio-Rad) and 500 μL (2 mg/mL protein content) were treated with 5 μL of 10 mM 1A-DTB (in DMSO) for 1 h at ambient temperature with occasional vortexing. Samples were methanol-chloroform precipitated with the addition of 500 μL ice-cold MeOH and 200 μL CHCl3, vortexed, and centrifuged (10 min, 10,000 g). Without disrupting the protein disk, both top and bottom layers were aspirated and the protein disk was washed with 1 mL ice-cold MeOH and centrifuged (10 min, 10,000 g). The pellets were allowed to air dry, and then re-suspended in 90 μL buffer (9 M urea, 10 mM DTT, 50 mM TEAB pH 8.5). […]
Data processing: Cysteine engagement ratios (probe vs DMSO) were calculated for each peptide-spectra match by dividing each TMT reporter ion intensity by the average intensity for the channels corresponding to DMSO treatment. […]

p27 = test: anti-p27 western blot; type: cell-based, human; settings: 22Rv1 cells, 24 h
SF3B1 (~150 kDa protein) = molecular target: T2, SF3B1 (~150 kDa protein) (Homo sapiens, UniProt O75533+Q7RTV0); test: Gel-based ABPP for SF3B1 cysteine engagement; type: binding; settings: 22Rv1 cells, 24 h pre-treatment (1 μM WX-02-23/WX-02-43, 10 nM pladienolide B)
T2 construct: Cysteine engagement data from 22Rv1 cells treated; endogenous in cells; host or cells: 22Rv1
T2 sequence (O75533 whole entry): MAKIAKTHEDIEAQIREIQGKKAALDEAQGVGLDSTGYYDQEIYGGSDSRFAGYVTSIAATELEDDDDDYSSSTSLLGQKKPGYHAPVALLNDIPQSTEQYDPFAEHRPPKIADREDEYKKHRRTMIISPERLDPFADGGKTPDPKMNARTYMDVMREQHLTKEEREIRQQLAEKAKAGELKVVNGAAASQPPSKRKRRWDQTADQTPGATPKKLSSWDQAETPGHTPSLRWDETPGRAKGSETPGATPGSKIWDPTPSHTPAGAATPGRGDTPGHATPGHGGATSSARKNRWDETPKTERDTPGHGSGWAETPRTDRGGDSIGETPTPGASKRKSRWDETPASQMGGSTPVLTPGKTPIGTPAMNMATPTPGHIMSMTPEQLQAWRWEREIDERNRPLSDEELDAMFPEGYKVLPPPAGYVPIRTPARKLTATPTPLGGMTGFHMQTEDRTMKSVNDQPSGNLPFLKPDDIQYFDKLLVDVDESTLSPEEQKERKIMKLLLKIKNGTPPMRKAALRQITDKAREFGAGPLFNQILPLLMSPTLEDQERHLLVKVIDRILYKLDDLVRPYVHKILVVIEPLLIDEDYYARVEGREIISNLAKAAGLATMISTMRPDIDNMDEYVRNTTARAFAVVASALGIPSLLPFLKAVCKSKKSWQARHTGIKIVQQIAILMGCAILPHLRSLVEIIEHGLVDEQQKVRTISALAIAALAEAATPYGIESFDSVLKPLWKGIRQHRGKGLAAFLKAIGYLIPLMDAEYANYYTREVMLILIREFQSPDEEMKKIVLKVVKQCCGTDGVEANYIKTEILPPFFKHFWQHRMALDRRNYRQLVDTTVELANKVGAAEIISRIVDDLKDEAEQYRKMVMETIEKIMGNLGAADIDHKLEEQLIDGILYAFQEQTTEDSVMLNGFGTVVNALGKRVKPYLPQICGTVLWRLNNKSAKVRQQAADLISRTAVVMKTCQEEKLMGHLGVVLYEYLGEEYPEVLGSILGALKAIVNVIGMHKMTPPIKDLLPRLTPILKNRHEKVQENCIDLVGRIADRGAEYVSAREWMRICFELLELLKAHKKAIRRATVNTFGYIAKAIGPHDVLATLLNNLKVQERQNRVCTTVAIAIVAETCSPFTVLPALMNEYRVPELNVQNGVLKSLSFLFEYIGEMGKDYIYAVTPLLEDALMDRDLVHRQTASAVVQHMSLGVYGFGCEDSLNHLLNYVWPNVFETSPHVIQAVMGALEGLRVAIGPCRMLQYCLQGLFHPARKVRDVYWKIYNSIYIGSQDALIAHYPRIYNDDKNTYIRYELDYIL
T2 sequence (Q7RTV0 whole entry): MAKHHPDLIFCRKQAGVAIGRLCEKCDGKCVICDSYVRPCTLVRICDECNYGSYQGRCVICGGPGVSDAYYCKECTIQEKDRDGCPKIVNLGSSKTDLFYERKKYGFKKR
T2 sequence (Q15393 whole entry partner): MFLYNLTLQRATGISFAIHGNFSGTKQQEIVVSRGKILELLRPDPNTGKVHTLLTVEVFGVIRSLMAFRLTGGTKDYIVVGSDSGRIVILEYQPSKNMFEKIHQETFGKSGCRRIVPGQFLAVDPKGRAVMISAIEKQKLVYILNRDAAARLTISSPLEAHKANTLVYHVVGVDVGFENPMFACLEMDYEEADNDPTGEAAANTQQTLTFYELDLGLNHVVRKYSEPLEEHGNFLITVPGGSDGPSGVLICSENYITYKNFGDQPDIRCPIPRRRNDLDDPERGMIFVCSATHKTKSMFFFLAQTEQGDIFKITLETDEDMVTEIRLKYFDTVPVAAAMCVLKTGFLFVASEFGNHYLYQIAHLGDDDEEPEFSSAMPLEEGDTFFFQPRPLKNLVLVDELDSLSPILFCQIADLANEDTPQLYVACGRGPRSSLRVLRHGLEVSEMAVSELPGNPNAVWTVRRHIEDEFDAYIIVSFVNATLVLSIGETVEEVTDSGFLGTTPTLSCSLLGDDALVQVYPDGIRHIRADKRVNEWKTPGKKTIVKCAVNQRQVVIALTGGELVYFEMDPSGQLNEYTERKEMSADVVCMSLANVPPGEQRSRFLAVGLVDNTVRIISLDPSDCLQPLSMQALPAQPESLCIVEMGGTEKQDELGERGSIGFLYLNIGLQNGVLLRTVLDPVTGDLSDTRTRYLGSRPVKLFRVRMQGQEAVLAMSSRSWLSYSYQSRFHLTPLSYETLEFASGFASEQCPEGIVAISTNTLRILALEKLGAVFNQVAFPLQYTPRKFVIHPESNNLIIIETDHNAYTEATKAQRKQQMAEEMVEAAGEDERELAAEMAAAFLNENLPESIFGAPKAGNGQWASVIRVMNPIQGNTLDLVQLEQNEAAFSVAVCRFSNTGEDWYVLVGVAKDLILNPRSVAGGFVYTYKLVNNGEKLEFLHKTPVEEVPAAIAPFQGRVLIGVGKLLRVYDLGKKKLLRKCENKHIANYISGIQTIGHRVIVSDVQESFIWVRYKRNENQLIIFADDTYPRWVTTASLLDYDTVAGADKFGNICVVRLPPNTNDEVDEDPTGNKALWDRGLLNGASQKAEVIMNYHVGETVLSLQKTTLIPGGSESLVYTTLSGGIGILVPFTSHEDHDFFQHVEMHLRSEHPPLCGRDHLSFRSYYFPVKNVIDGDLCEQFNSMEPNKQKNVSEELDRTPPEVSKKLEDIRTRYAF
T2 sequence (Q9BWJ5 whole entry partner): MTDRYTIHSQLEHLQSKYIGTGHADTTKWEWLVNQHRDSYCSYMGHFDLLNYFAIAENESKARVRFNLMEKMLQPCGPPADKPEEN
Experimental: 22Rv1 cells were treated with indicated compounds for 24 h, chased with click probe for 1 h in situ, harvested and lysed in PBS with protease inhibitors (cOmplete), and then normalized to 2.0 mg/mL. Reagents for the CuAAC click reaction were pre-mixed prior to addition to the samples (3 μL of click reaction mix for 25 μL of lysate). After 1 hour of click labeling, 4×SDS running buffer was added to samples, which were then analyzed by SDS-PAGE.

[1] = molecular target: T3, recombinant FLAG-PSME1 WT or C22A (Homo sapiens, UniProt Q06323, C22A); test: SEC analysis by western blot; type: cell-based; settings: 22Rv1 cells expressing FLAG-PSME1 C22A, 10 μM, 3 h
T3 construct: FLAG; expressed in transfected cells; host or cells: 22Rv1 pLenti3.3/TR (tetracycline-induced)
T3 sequence (Q06323 whole entry C22A): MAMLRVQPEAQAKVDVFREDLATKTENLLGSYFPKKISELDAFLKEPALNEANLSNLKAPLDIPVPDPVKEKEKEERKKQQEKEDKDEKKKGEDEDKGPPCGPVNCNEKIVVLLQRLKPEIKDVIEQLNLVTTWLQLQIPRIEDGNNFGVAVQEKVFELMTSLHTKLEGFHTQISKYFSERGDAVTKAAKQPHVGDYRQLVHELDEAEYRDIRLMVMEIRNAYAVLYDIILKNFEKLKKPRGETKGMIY
Experimental: (§1) For experiments using transiently overexpressed constructs (FLAG-PSME1 WT/C22A, HA-ACAT1 WT/C126A), Stable clonal 22Rv1 pLenti3.3/TR were transfected using polyethylenimine and treated with tetracycline ([…]) for 48 h prior to treatment with electrophilic probes.
(§2) Cells were lysed and fractioned by SEC. After acetone precipitation and resuspension, 4× gel loading buffer was added to eluates, and proteins were resolved using SDS-PAGE (4-20% acrylamide, Tris-glycine gel), and transferred to a nitrocellulose membrane. The membrane was blocked with 5% milk in Tris-buffered saline (20 mM Tris-HCl 7.6, 150 mM NaCl) with 0.1% tween (TBST) and incubated with primary antibody overnight. After TBST wash (3 times), the membrane was incubated with secondary antibody, washed with TBST again, developed with ECL western blotting detection reagents, and recorded on a Bio-Rad ChemiDoc MP. Relative band intensities were analyzed using ImageJ.

[2] = molecular target: T4, recombinant FLAG-PSME1 WT or C22A (Homo sapiens, UniProt Q06323); test: SEC analysis by western blot; type: cell-based; settings: 22Rv1 cells expressing FLAG-PSME1 WT, 10 μM, 3 h
T4 construct: FLAG; expressed in transfected cells; host or cells: 22Rv1 pLenti3.3/TR (tetracycline-induced)
T4 sequence (Q06323 whole entry, stated change not applied): as the sequence (Q06323 whole entry C22A) above, with A22C counted along it
Experimental: as §1, §2

T1 sequence (Q7RTV0 whole entry): as the sequence (Q7RTV0 whole entry) above
T1 sequence (O75533 whole entry): as the sequence (O75533 whole entry) above
T1 sequence (Q15393 whole entry partner): as the sequence (Q15393 whole entry partner) above
T1 sequence (Q9BWJ5 whole entry partner): as the sequence (Q9BWJ5 whole entry partner) above

Structure (SMILES)	engagement of PHF5A_C26 (PHF5A_C26)	p27 expression (p27)	blockade of WX-01-10 labeling of the 150 kDa protein (SF3B1 (~150 kDa protein))	SEC size shift of recombinant PSME1 C22A mutant [1]	SEC size shift of recombinant WT-PSME1 [2]
C=CC(=O)N1[C@H](c2ccc3c(c2)OCO3)c2[nH]c3ccccc3c2C[C@H]1C(=O)N1CCOCC1 [WX-02-23, 1-((1R,3S)-1-(benzo[d][1,3]dioxol-S-yl)-3-(morpholine-4-carbonyl)-1,3,4,9-tetrahydro-2H-pyrido [3,4-b]indol-2-yl)prop-2-en-1-one]	did not engage	induced expression of p27	blocked		
C=CC(=O)N1C[C@H](c2ccc(Br)cc2)[C@@H]1C(=O)Nc1cccc2cccnc12 [MY-1B, (2R,3S)-1-acryloyl-3-(4-bromophenyl)-N-(quinolin-8-yl)azetidine-2-carboxamide]				unaffected	clear size shift
